Laboratory results taken from US20240335547A1, “MODIFIED CHOLIC ACID CONJUGATES” (priority 2022, published 2024).
Values after ≈ are worked out from the molar mass of the structure shown.

Assays:
Coronavirus 229E = assay: "Disinfectant" experiments: virus pre-mixed with compound, then added to HFFs; format: cell-based; conditions: Human coronavirus 229E, 0.25 h; mixed with virus 15 minutes at room temperature before adding to HFFs
Procedure: In the “disinfectant” experiments, stock solution of Compound 12 was generated by dissolving the compound in 10% DMSO solution. Different amounts of Compound 12 from the stock solution were mixed with 10^4 PFU of Coronavirus 229E. After incubation at room temperature for 15 minutes, the mixture of virus and Compound 12 was added to the culture of primary human foreskin fibroblasts (HFFs). At 24 hours post-infection, culture medium was changed and the infected HFFs were further cultured in the absence of Compound 12. The level of inhibition of virus infection and production was determined.

TNF-α = TNF-α production in HEK293 Cells; format: cell-based; conditions: 5 μg/ml
Description: It was confirmed that Compound 12 stimulates TNF-α production in HEK293 Cells.

Pseudomonas = assay: Bactericidal activity MIC/MBC; format: cell-based; conditions: Gram−
HCoV-229E = assay: In vivo viral load in mice lung tissue; set-up: species or system BALB/c mice; conditions: 2 days and 3 days post-treatment, versus control mice
Procedure: FIG. 6 illustrates the in vivo viral load reduction in mice lung tissue administered Compound 12 compared to control mice that were not administered a compound of the disclosure. In the Group administered Compound 12, a substantial (30-200 fold) reduction of virus replication and production was recorded 2 days and 3 days post-treatment.
Group C: Infection with 229E, treated with PBS: Thirty five (35) BALB/c 6-weeks old female mice were used for this group. Mice were first anesthetized with isoflurane. Each mouse was intranasally infected with 1×105 plaque forming unit (pfu) of HCoV-229E and then treated with PBS (75 ul) 24 hours later. Mice were sacrificed at 24 hrs post infection, and 24 hrs, 48 hrs, 72 hrs, 6 days, and 7 days post treatment. The lungs from these mice were collected for viral load, immunohistochemistry and cytokines analysis.
Group D: Infection with 229E, treated with Compound 12: Forty Five (45) BALB/c 6-weeks old female mice were used for this group. Mice were first anesthetized with isoflurane. Each mouse was intranasally infected with 1×10^5 pfu of HCoV-229E and then treated with 0.5 mg of Compound 12 diluted in PBS (75 ul) 24 hours later. Mice from this group were sacrificed at 24 hrs, 48 hrs, 72 hrs, 6 days and 7 days post treatment. The lungs from these mice were collected for viral load, immunohistochemistry and cytokines analysis.

in vitro = conditions: human
Candida albicans = assay: Fungicidal activity MIC/MBC; format: cell-based; conditions: Yeast
human coronavirus 229E = assay: Therapeutic activity against human coronavirus 229E in HFF cells; format: cell-based; conditions: Human coronavirus 229E, HFF; added 24 hours post infection, cells cultured for two weeks, cell viability; read-out: EC50
Procedure: (1) HFF cells (5×104) were seeded with 1 ml of DMEM media supplemented with 10% FBS in each well of four 24-well tissue culture plates. (2) Cell were cultured for 3 days until HFF cells in each well attained 90% confluency (media was changed 1 day before infection). 10 μl of the 10-time diluted original solution of coronavirus, about 1×10^5 PFU were added into each well. Infection was allowed to proceed overnight. (3) The media was changed 24 hours post infection. CSA-44 was added to test their anti-viral effects. Ten different concentrations of the drug were tested. They were 15 μg/ml, 10 μg/ml, 9 μg/ml, 8 μg/ml, 7 μg/ml, 6 μg/ml, 5 μg/ml, 4 μg/ml, 3 μg/ml, and 2 μg/ml with 0 μg/ml as the control. Each concentration has 12 wells for test. Cells were cultured for two weeks, and cell viability was quantified. CSA-44 was effective in inhibiting viral replication and growth. The values of EC50 (where EC is the concentration of the active that gives 50% of the maximal response) of CSA-44 is identified as 4 μg/ml.
(1) HFF cells (5×104) were seeded with 1 ml of DMEM media supplemented with 10% FBS in each well of four 24-well tissue culture plates. (2) Cells were cultured for 3 days until HFF cells in each well attained 90% confluency (media was changed 1 day before infection). Ten μl of the 10-time diluted original solution of coronavirus, about 1×10^5 PFU, were added into each well. Infection was allowed to proceed overnight. (3) The media was changed 24 hours post infection. Different concentrations of CSA-44 were added to test their anti-viral effects. Each concentration has 12 wells for test. Cells were cultured in the presence of CSA-44 for […] and cell viability was quantified.
(1) HFF cells (5×104) were seeded with 1 ml of DMEM media supplemented with 10% FBS in each well of four 24-well tissue culture plates. (2) Cells were cultured for 3 days until HFF cells in each well attained 90% confluency (media was changed 1 day before infection). […] Cells were cultured for two weeks, and cell viability was quantified. […]

[1] = tested on: Golgi apparatus, mitochondria, and endoplasmic reticulum (ER); format: cell-based, human
Description: The effect of compound 12 was studied on cellular structures and organelles such as Golgi apparatus, mitochondria, and endoplasmic reticulum (ER).

Structure (SMILES): C[C@H](CCC(=O)NCCNC(=O)CCCC[C@@H]1SCC2NC(=O)NC21)C1CCC2C3C(C[C@H](OC(=O)CCN)[C@@]21C)[C@@]1(C)CC[C@@H](OC(=O)CCN)CC1C[C@H]3OC(=O)CCN (stereo partly shown) [Compound 12]
- EC50 (Coronavirus 229E): 500 µg/mL (≈ 562 µM)
- TNF-α generated (TNF-α): 7,123 pg/ml
- MBC (Pseudomonas): 1060 µg/mL (≈ 1190 µM)
- MIC (Pseudomonas): 530 µg/mL (≈ 595 µM)
- reduction of virus replication and production (HCoV-229E): 30-200 fold
- CC50 at 3 days (in vitro): > 200 µM
- MBC (Candida albicans): 66.2 µg/mL (≈ 74.4 µM)
- MIC (Candida albicans): 66.2 µg/mL (≈ 74.4 µM)
- EC50 (human coronavirus 229E): 3 µg/mL (≈ 3.37 µM)
- effect on overall structure and organization of cellular structures and organelles [1]: did not affect the overall structure and organization
